Assay results: paper PMC9068900, “Pharmacology of Kappa Opioid Receptors: Novel Assays and Ligands” (Frontiers in Pharmacology, 2022)
Marks after values point to notes of the source that are not given here.

Assays:
human mu opioid receptor = target: T1, human mu opioid receptor (Homo sapiens, UniProt P35372); experiment: Calcium mobilization in CHO cells co-expressing the mu receptor and Gαqi5; format: cell-based
T1 construct: expressed in transfected cells

[1] = target: T2, human delta opioid receptor (Homo sapiens, UniProt P41143); experiment: Calcium mobilization in CHO cells co-expressing the delta receptor and GαqG66Di5; format: cell-based
T2 construct: expressed in transfected cells

[2] = target: T3, human kappa opioid receptor (Homo sapiens, UniProt P41145); experiment: biochemical; format: biochemical; set-up: 13-mer linker peptide […]; expressed in transfected cells; enriched plasma membranes used
[3] = target: T3, human kappa opioid receptor; experiment: Dynamic mass redistribution (DMR) label-free assay in CHO cells; format: cell-based; set-up: expressed in transfected cells
Method: DMR experiments were conducted as previously described ([Malfacini et al., 2018]). Chinese Hamster Ovary (CHO) cells stably expressing the human kappa receptor were kindly provided by L Toll (Torrey Pines Institute for Molecular Studies, Port St. Lucie, United States). Cells were cultured in Dulbecco’s Modified Eagle Medium: Nutrient Mixture F-12 (DMEM/F12) supplemented with 10% (v/v) Fetal Calf Serum (FCS), 100 U/ml penicillin, 100 μg/ml streptomycin, 2 mM L-glutamine, 15 mM HEPES. The medium was supplemented with 400 μg/ml G418 to maintain expression. Cells were seeded at a density of 45,000 cells/well in 120 μL into fibronectin-coated EnspireTM-LC 96-wells plates and cultured for 20 h to form a confluent monolayer. On the day of the experiment, cells were washed twice and maintained with assay buffer: HBSS with 20 mM HEPES, 0.01% BSA fraction V; for 90 min before the experiment. DMR was monitored in real-time with a temporal resolution of 44 s throughout the assay. Experiments were performed at 37°C, using an EnSight Multimode Plate Reader (PerkinElmer). A 5 min baseline was first established, followed by adding compounds manually in a volume of 40 μL and recording compound-triggered DMR signal for 60 min. In antagonism experiments, ligands tested as antagonists were added 30 min before agonist administration. Maximum picometers (pm) modification (peak) were used to determine agonist response after baseline normalization.
The pharmacological terminology is consistent with the International Union of Basic and Clinical Pharmacology (IUPHAR) recommendations ([Neubig et al., 2003]). Concentration-response curves to agonists were fitted to the four-parameter logistic nonlinear regression model as follows: Effect=Basal+ Emax−Basal/1+10^ (LogEC50−Log[ligand]) × HillSlope
If unsurmountable antagonist behavior was detected, the pKB value was derived as follows: a double-reciprocal plot of equi-effective concentrations of agonist (A) in the absence (1/A) and presence (1/A’) of the antagonist (B) was constructed and pKB was derived from the equation pKB = log {(slope-1)/[B]} ([Kenakin, 2009]).

[4] = target: T3, human kappa opioid receptor; experiment: Calcium mobilization in CHO cells co-expressing the kappa receptor and Gαqi5; format: cell-based; set-up: expressed in transfected cells
[5] = target: T3, human kappa opioid receptor; experiment: BRET kappa-β-arrestin 2 interaction, SH-SY5Y whole cells; format: cell-based; set-up: 13-mer linker peptide […]; expressed in transfected cells; enriched plasma membranes used
[6] = tested on: human kappa opioid receptor; experiment: Bias factor, G protein vs β-arrestin 2, from BRET data
Method: To quantify the differences in agonist efficacies for G protein and arrestin interactions, bias factors were calculated by choosing the endogenous kappa opioid ligand Dyn A as standard unbiased ligand. For this analysis, the Emax and EC50 of the agonist were derived using a 3-parameter logistic model with slope values equal to unity. […] Under such conditions, the relative ratio (Emax/EC50)lig/(Emax/EC50)Dyn A is equivalent to the relative (τ/K)lig/(τ/K)Dyn A ratio as defined by the operational model ([Black and Leff, 1983]; [Griffin et al., 2007]). Taking ratios of these values between G protein and arrestin can cancel the common K and yield the ratio of ligand intrinsic efficacy across the two transduction proteins. Thus, the following formula was used for calculating agonist bias factors in log10 units: bias factor= log[(Emax/EC50)lig/(Emax/EC50)Dyn A]G prot.−log[(Emax/EC50)lig/(Emax/EC50)Dyn A]β−arr.
The pharmacological terminology and computations related to biased agonism were consistent with IUPHAR recommendations ([Kolb et al., 2022]).

mice [7] = tested on: mice; set-up: method as in Gairin et al., 1988a; details: intracerebroventricular, ref Gairin et al., 1988a; cited from earlier work
mice [8] = tested on: mice; set-up: method as in Gairin et al., 1988a; details: intracerebroventricular, ref Gairin et al., 1988a; cited from earlier work; remark: listed apart in the source
kappa opioid receptor = tested on: kappa opioid receptor; set-up: method as in Arimitsu et al., 1977; details: ref Arimitsu et al., 1977, cited from earlier work
[9] = target: T3, human kappa opioid receptor; experiment: Summary over the assays used (calcium mobilization, DMR, BRET); format: cell-based; set-up: expressed in transfected cells

T2 sequence (P41143 whole entry): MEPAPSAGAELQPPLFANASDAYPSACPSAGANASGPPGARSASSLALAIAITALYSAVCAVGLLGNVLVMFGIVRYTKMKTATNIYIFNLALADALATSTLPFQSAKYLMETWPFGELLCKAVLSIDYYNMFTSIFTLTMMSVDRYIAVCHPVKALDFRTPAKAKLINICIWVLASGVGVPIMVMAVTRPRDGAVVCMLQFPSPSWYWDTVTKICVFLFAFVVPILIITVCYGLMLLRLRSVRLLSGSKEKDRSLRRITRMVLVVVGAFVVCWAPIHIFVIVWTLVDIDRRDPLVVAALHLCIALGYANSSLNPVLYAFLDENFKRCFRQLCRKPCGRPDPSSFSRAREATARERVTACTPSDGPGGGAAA
T3 sequence (P41145 whole entry): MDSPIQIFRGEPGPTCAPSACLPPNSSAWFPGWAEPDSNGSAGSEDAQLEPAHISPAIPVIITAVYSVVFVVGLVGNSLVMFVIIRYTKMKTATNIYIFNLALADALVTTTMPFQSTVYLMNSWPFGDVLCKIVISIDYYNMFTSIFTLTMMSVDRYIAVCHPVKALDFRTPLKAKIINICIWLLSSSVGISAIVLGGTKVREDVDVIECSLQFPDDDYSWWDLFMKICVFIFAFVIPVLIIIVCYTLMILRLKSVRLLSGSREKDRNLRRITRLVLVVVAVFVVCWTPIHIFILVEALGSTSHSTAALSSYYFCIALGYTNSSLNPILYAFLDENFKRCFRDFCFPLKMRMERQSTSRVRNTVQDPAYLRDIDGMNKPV
T1 sequence (P35372 whole entry): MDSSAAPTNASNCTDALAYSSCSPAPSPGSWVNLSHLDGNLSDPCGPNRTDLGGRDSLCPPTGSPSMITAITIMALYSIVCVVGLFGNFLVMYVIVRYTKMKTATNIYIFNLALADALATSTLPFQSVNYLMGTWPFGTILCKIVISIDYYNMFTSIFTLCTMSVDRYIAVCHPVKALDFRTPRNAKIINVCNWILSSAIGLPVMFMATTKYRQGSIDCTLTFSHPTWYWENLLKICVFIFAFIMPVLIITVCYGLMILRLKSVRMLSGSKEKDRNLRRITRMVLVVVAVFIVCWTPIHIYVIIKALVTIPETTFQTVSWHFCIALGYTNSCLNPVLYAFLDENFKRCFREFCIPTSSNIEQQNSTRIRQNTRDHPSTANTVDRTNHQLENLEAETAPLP

## CCCCCCCCCCCCCCCC(=O)NCCCN1C(=O)CC(SC[C@H](NC(=O)[C@H](CCC(N)=O)NC(=O)[C@H](CC(N)=O)NC(=O)[C@H](CC(=O)O)NC(=O)[C@H](Cc2c[nH]c3ccccc23)NC(=O)[C@H](CCCCN)NC(=O)[C@H](CC(C)C)NC(=O)[C@H](CCCCN)NC(=O)[C@@H]2CCCN2C(=O)[C@H](CCCNC(=N)N)NC(=O)[C@@H](NC(=O)[C@H](CCCNC(=N)N)NC(=O)[C@H](CCCNC(=N)N)NC(=O)[C@H](CC(C)C)NC(=O)[C@H](Cc2ccccc2)NC(=O)CNC(=O)CNC(=O)[C@@H](N)Cc2ccc(O)cc2)[C@@H](C)CC)C(N)=O)C1=O (some centres unmarked) [Dyn A-palmitic]
Human mu opioid receptor; calcium mobilization, mu
  Lower potency than dermorphin: approximately 6 fold
[1]; calcium mobilization, delta
  Less potent than DPDPE: 10 fold

## CC[C@H](C)[C@H](NC(=O)[C@H](CCCNC(=N)N)NC(=O)[C@H](CCCNC(=N)N)NC(=O)[C@H](CC(C)C)NC(=O)[C@H](Cc1ccccc1)NC(=O)CNC(=O)CNC(=O)[C@@H](N)Cc1ccc(O)cc1)C(=O)N[C@@H](CCCNC(=N)N)C(=O)N1CCC[C@@H]1C(=O)N[C@@H](CCCCN)C(N)=O [[D-Pro^10], [D-Pro^10]Dyn(1-11)-NH2]
[2]
  BRET G Protein pEC50 (CL95%): 8.36 (6.54–10.19)
  BRET G Protein α: 1.00
[3]
  DMR Emax: 251 pm
  DMR pEC50 (CL95%): 9.84 (9.31–10.37)
  DMR α: 1.07
[4]
  Calcium Mobilization pEC50 (CL95%): 9.08 (8.93–9.23)
  Calcium Mobilization α (intrinsic activity: maximal effect divided by that of Dyn A): 1.00
[5]
  BRET β-Arrestin 2 pEC50 (CL95%): 8.07 (7.66–8.47)
  BRET β-Arrestin 2 α: 0.95

## CC[C@H](C)[C@H](NC(=O)[C@H](CCCNC(=N)N)NC(=O)[C@H](CCCNC(=N)N)NC(=O)[C@H](CC(C)C)NC(=O)[C@H](Cc1ccccc1)NC(=O)CNC(=O)CNC(=O)[C@@H](N)Cc1ccc(O)cc1)C(=O)N[C@@H](CCCNC(=N)N)C(=O)N1CCC[C@H]1C(=O)N[C@@H](CCCCN)C(=O)N[C@@H](CC(C)C)C(=O)N[C@@H](CCCCN)C(=O)N[C@@H](Cc1c[nH]c2ccccc12)C(=O)N[C@@H](CC(=O)O)C(=O)N[C@@H](CC(N)=O)C(=O)N[C@@H](CCC(N)=O)C(=O)O [Dyn A, dynorphin A]
[1]; CHO cells, delta + GαqG66Di5
  Maximal effects: 171 % over the baseline
[6]
  Bias factor (CL95%): 0.00

## [D-Pro^10]Dyn(1-11)
Mice [7]
  Effect in acetic acid-induced writhing: dose-dependent antinociceptive effect
Mice [8]
  Activity against thermal stimulus (tail-flick): did not show any activity
Kappa opioid receptor; [^3H]Bremazocine binding
  Higher affinity to the kappa opioid receptor than Dyn A: 7 fold
Kappa opioid receptor
  Selectivity over the delta opioid receptor: 233 fold
  Selectivity over the mu opioid receptor: 62 fold

## Nc1nc2c(ncn2[C@@H]2O[C@H](COP(=O)(O)OP(=O)(O)O)[C@@H](O)[C@H]2O)c(=O)[nH]1 [GDP, guanosine diphosphate]
[2]; 5 min after compound addition
  pEC50 (CL95%): 8.20
[2]; 30 min after compound addition
  pEC50 (CL95%): 8.21

## C[C@@H](NC(=O)[C@@H](N)Cc1ccc(O)cc1)C(=O)N[C@@H](Cc1ccccc1)C(=O)NCC(=O)N[C@@H](Cc1ccc(O)cc1)C(=O)N1CCC[C@H]1C(=O)N[C@@H](CO)C(N)=O [Dermorphin]
Human mu opioid receptor; CHO cells, mu + Gαqi5
  Maximal effects: 294 % over the baseline

## CC[C@H](C)[C@H](NC(=O)[C@H](CCCNC(=N)N)NC(=O)[C@H](CCCNC(=N)N)NC(=O)[C@H](CC(C)C)NC(=O)[C@H](Cc1ccccc1)NC(=O)CNC(=O)CNC(=O)[C@@H](N)Cc1ccc(O)cc1)C(=O)N[C@@H](CCCNC(=N)N)C(=O)N1CCC[C@H]1C(=O)N[C@@H](CCCCN)C(=O)N[C@@H](CC(C)C)C(=O)N[C@@H](CCCCN)C(=O)N[C@@H](Cc1c[nH]c2ccccc12)C(=O)N[C@@H](CC(=O)O)C(=O)N[C@@H](CC(N)=O)C(=O)N[C@@H](CCC(N)=O)C(=O)N[C@@H](CSC1CC(=O)N(CCCC(=O)N2CCCN(C(=O)CCCN3C(=O)CC(SC[C@H](NC(=O)[C@H](CCC(N)=O)NC(=O)[C@H](CC(N)=O)NC(=O)[C@H](CC(=O)O)NC(=O)[C@H](Cc4c[nH]c5ccccc45)NC(=O)[C@H](CCCCN)NC(=O)[C@H](CC(C)C)NC(=O)[C@H](CCCCN)NC(=O)[C@@H]4CCCN4C(=O)[C@H](CCCNC(=N)N)NC(=O)[C@@H](NC(=O)[C@H](CCCNC(=N)N)NC(=O)[C@H](CCCNC(=N)N)NC(=O)[C@H](CC(C)C)NC(=O)[C@H](Cc4ccccc4)NC(=O)CNC(=O)CNC(=O)[C@@H](N)Cc4ccc(O)cc4)[C@@H](C)CC)C(N)=O)C3=O)CCN(C(=O)CCCN3C(=O)CC(SC[C@H](NC(=O)[C@H](CCC(N)=O)NC(=O)[C@H](CC(N)=O)NC(=O)[C@H](CC(=O)O)NC(=O)[C@H](Cc4c[nH]c5ccccc45)NC(=O)[C@H](CCCCN)NC(=O)[C@H](CC(C)C)NC(=O)[C@H](CCCCN)NC(=O)[C@@H]4CCCN4C(=O)[C@H](CCCNC(=N)N)NC(=O)[C@@H](NC(=O)[C@H](CCCNC(=N)N)NC(=O)[C@H](CCCNC(=N)N)NC(=O)[C@H](CC(C)C)NC(=O)[C@H](Cc4ccccc4)NC(=O)CNC(=O)CNC(=O)[C@@H](N)Cc4ccc(O)cc4)[C@@H](C)CC)C(N)=O)C3=O)CCCN(C(=O)CCCN3C(=O)CC(SC[C@H](NC(=O)[C@H](CCC(N)=O)NC(=O)[C@H](CC(N)=O)NC(=O)[C@H](CC(=O)O)NC(=O)[C@H](Cc4c[nH]c5ccccc45)NC(=O)[C@H](CCCCN)NC(=O)[C@H](CC(C)C)NC(=O)[C@H](CCCCN)NC(=O)[C@@H]4CCCN4C(=O)[C@H](CCCNC(=N)N)NC(=O)[C@@H](NC(=O)[C@H](CCCNC(=N)N)NC(=O)[C@H](CCCNC(=N)N)NC(=O)[C@H](CC(C)C)NC(=O)[C@H](Cc4ccccc4)NC(=O)CNC(=O)CNC(=O)[C@@H](N)Cc4ccc(O)cc4)[C@@H](C)CC)C(N)=O)C3=O)CC2)C1=O)C(N)=O (some centres unmarked) [PWT2-Dyn A]
[2]
  BRET G Protein α: ∼1.00
  Lower potency than Dyn A: 3 fold
[2]; BRET G Protein pEC50 (CL95%)
  EC50: 18.6 nM
[9]
  Lower potency than dynorphin A: 3–10 fold
[3]
  DMR α: 0.84
  Lower potency than Dyn A: 4 fold
Human mu opioid receptor; CHO cells, mu + Gαqi5
  Agonist activity (in words): inactive
[1]; only at the highest concentration tested
  Stimulatory effect: 77 % over the baseline
[4]
  Calcium Mobilization α (intrinsic activity: maximal effect divided by that of Dyn A): ∼1.00
  EC50: 30.9 nM
[6]
  Bias factor (CL95%): ∼0.18 ^c
[5]
  BRET β-Arrestin 2 α: ∼1.00
  EC50: 219 nM
  Lower potency than Dyn A: 3 fold
